Measured values: PMC9112550, “Optimization of the antimicrobial peptide Bac7 by deep mutational scanning” (BMC Biology, 2022)
pIC50: −log10 of the molar value. Entries after “also recorded” stand apart in the source; their conditions may differ. Where no end group is shown, it is not given here.

Key:
E. coli TOP10 = assay: Membrane damage assay in MHB II (GFP loss, PI uptake); type: cell-based; settings: n = 3
HeLa cells = assay: In vitro toxicity assay (MTT), HeLa; type: cell-based, human
Experimental: (§1) HeLa epithelioid cervix carcinoma cells (originally purchased: 93021013, Sigma Aldrich) and HEK 293 human embryonic kidney (originally purchased: 85120602, Sigma Aldrich) were routinely cultivated in Dulbecco’s MEM high glucose (DMEM, with L-glutamine, without phenol red, 1-26P32, Bioconcept, Allschwil, CH), supplemented with 10% fetal bovine serum (heat inactivated, sterile filtered, F9665, Sigma Aldrich) and 100 IU ml^−1/100 μg ml^−1 Penicillin/streptomycin (4-01F00, Bioconcept) at 37°C with 5% CO2. Cells were split at a confluency of ≤ 90% (every 3 to 4 days) and maintained for max. 10 passages before a fresh aliquot of cells were seeded. […] The cell concentration was determined using a Countess 2 device (Thermo Fisher Scientific) and approx. 5000 (HeLa) or 25,000 (HEK 293) cells were seeded into wells of a 96-well plate (F-bottom, PS, 655180, Greiner) together with 100 μl DMEM. […] For each dilution series, the IC50 value was determined by computing a weighted n-parameters logistic regression using the “nplr” package in R (https://CRAN.R-project.org/package=nplr). […]

HEK 293 cells = type: cell-based, human; settings: MTT, 24 h, 37°C, triplicates, read-out: Toxicity IC50
Experimental: as §1

CD-1 mice = assay: Maximum tolerated dose / in vivo toxicity; design: species or system mouse
Experimental: CD-1 mice (7 weeks old, 27–28 g female) were used (Charles River, France). These animals were housed for a week of acclimation period before the experiment in a protected area in the ‘Centre de Zootechnie de l’Université de Bourgogne’ (Biosafety level 2 facility) and fed ad libitum according to the current recommendations by the European Institute of Health. Housing took place in rooms where a 12-h/12 h light/dark cycle is applied, the temperature ranges from 18 to 21°C and the relative humidity from 45 to 65%. The animal facility is authorized by the French authorities (Agreement N° C 21 464 04 EA). […]
For animal experiments, Bac7PS was synthesized at Genscript as acetate salt and with a purity of 92%. […] First, the maximum tolerated dose (MTD) for the peptide was determined by testing different peptide doses in 8 groups with 5 animals per group. The peptide solution was administered once by intraperitoneal (IP) injection with a volume of between 94 and 240 μl (depending on the weight of the animal and the dosage) and the animals were monitored for 2 h following the injection, then 6 to 8 h later, and then once or twice a day, depending on the clinical status, up to 5 days post-injection. […] As endpoint, the wellbeing and survival rate, on a twice daily based evaluation for up to 3 days, was monitored.

E. coli ribosomes = settings: S30 extract E. coli ATCC 25922; firefly luciferase mRNA; 800 to 0.08 μM; 1 h, 37°C; n = 9; p = 0.15, Wilcoxon, not significant
Experimental: To measure inhibition of the E. coli ATCC 29522 ribosome, an S30 extract from E. coli cells was purified. E. coli ATCC 25922 was grown in 2 l of liquid LB medium at 37°C and 160 rpm. Cells were harvested in the logarithmic phase by centrifugation for 30 min at 3500 × g at 4°C. The cell pellet was washed with ice-cold S30 buffer (20 mM Tris-acetate pH 8.2, 60 mM potassium acetate, 14 mM magnesium acetate, and 3 mM β-mercaptoethanol) and pelleted again for 30 min at 3500 × g at 4°C. The resulting cell pellet was shock-frozen in liquid nitrogen and stored at −80°C until further processing. Frozen E. coli cells were thawed on ice and resuspended in four times their volume ice-cold S30 buffer. The resulting cell suspension was lysed by passing it twice through a microfluidizer processor (Microfluidics, Westwood, MA, USA) at 25,000 lb/in^2 and the cell lysate was immediately amended with DTT to a final concentration of 1 mM. The lysate was then centrifuged twice for 30 min at 30,000 × g at 4°C. After each centrifugation cycle, the clear supernatant was carefully decanted and the pellet discarded. Aliquots of S30 extract were shock-frozen in liquid nitrogen and stored at −80°C.
Sealed plates were incubated for 1 h at 37°C and stopped on ice before adding 75 μl of luciferase assay reagent (Promega) to each reaction. […]

[1] = approximately 16-fold above its MIC (~35 μM)
[2] = at the MIC up to 8-fold higher concentrations

RRIRIRPPRLPRPRPRPYFMPRP [Bac7PS] was tested, and the PI-positive cells (E. coli TOP10; [1]) was ~ 3%, the “cells that lost GFP” value (E. coli TOP10; [1]) was 26% and the PI-positive cells (E. coli TOP10; [2]) was ~ 1%. The “cells that retained GFP levels” value (E. coli TOP10; [2]) was ~ 99%, the pIC50 (HeLa cells; HeLa, MTT, 24 h, 37°C, triplicates) was 3.28 and the “therapeutic index (TI), Toxicity/MIC” value (HeLa cells; IC50 HeLa divided by MIC50 from clinical isolates) was 180. For the same sequence, the pIC50 (HEK 293 cells) was 3.12, the “tolerability of a second administration” value (CD-1 mice; 40 mg kg^−1 IP, repeated 4 h after first dosing) was “does not influence the survival of mice; also recorded: tolerated” and the “maximal dose at which all CD-1 mice survived” value (CD-1 mice; intraperitoneal, 3 days, single administration, 5 animals per group) was 50 mg/kg. For the same sequence, the “mean increase of activity on E. coli ribosomes (translation inhibition IC50) compared to Bac7_1-23” value (E. coli ribosomes) was 10%.
